This is an account of results in patent US10323022B2, “Pyrrolidinyl urea, pyrrolidinyl thiourea and pyrrolidinyl guanidine compounds as TrkA kinase inhibitors” (Array BioPharma Inc., priority 2011, dated 2019).

Some results are limits rather than exact numbers.

TrkA, sequence (P04629 33-796): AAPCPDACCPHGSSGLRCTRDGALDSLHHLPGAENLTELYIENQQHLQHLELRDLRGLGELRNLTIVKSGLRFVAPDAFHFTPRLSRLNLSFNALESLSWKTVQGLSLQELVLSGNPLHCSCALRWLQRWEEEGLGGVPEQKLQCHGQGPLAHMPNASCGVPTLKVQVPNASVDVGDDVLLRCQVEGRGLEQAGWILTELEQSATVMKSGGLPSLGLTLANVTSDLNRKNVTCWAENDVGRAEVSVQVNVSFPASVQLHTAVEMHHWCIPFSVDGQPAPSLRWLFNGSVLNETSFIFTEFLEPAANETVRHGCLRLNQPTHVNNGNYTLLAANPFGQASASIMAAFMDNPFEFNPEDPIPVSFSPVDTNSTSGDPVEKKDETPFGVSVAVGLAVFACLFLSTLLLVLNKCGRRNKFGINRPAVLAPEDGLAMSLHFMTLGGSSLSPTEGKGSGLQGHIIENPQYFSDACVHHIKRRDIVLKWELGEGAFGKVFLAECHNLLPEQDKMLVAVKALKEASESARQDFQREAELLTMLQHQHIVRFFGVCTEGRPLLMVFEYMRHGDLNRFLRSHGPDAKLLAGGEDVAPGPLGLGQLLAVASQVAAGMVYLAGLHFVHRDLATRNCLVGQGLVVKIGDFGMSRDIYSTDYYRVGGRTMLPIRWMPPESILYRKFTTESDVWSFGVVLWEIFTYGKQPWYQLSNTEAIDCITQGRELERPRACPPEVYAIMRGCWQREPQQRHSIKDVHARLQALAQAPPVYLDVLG

This experiment has as its target TrkA (Homo sapiens (Human), UniProt P04629). Description: TrkA Omnia Assay. In kind it is biochemical. Particulars: averaged IC50; 20 nM enzyme, 500 μM ATP, 10 μM peptide substrate. A digest of the protocol:
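Recombinant TrkA (20 nM) preincubated 10 min at ambient temperature with compound, then Omnia Tyr Peptide #4 (10 μM) and ATP (500 μM) added in 25 mM MOPS pH 7.5, 5 mM MgCl2, 0.005% Triton X-100. Fluorescence (ex 360/em 485 nm) followed continuously for 70 min; IC50 from initial rates by 4- or 5-parameter logistic fit.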
Regarding `COCCN1C[C@@H](NC(=O)Nc2c(C#N)c(C)nn2-c2ccccc2)[C@H](c2ccc(F)c(F)c2)C1` [Example 66, 1-(4-cyano-3-methyl-1-phenyl-1H-pyrazol-5-yl)-3-((3S,4R)-4-(3,4-difluorophenyl)-1-(2-methoxyethyl)pyrrolidin-3-yl)urea], the IC50 (in general, the concentration that inhibits the measured activity by half) is below 100 nM.

With `COCCN1C[C@@H](NC(=O)Nc2c(Cl)c(-c3ccccc3)nn2C)[C@H](c2ccc(F)c(F)c2)C1` [Example 67, 1-(4-chloro-1-methyl-3-phenyl-1H-pyrazol-5-yl)-3-((3S,4R)-4-(3,4-difluorophenyl)-1-(2-methoxyethyl)pyrrolidin-3-yl)urea], the IC50 was in the range of 100 to 1000 nM. Regarding `COCCN1C[C@@H](NC(=O)Nc2c(Br)c(-c3ccccc3)nn2C)[C@H](c2ccc(F)c(F)c2)C1` [Example 68, 1-(4-bromo-1-methyl-3-phenyl-1H-pyrazol-5-yl)-3-((3S,4R)-4-(3,4-difluorophenyl)-1-(2-methoxyethyl)pyrrolidin-3-yl)urea], the IC50 lay in the range of 1000 to 10000 nM. Take `COCCN1C[C@@H](NC(=O)Nc2c(C#N)c(CC#N)nn2-c2ccccc2)[C@H](c2ccc(F)c(F)c2)C1` [Example 70, 1-(4-cyano-3-(cyano-methyl)-1-phenyl-1H-pyrazol-5-yl)-3-((3S,4R)-4-(3,4-difluorophenyl)-1-(2-methoxyethyl)pyrrolidin-3-yl)urea]: the half-inhibitory concentration (IC50) was below 100 nM. With `COCCN1C[C@@H](NC(=O)Nc2cc(C(C)(C)C#N)nn2-c2ccccc2)[C@H](c2ccc(F)c(F)c2)C1` [Example 71, 1-(3-(2-cyanopropan-2-yl)-1-phenyl-1H-pyrazol-5-yl)-3-((3S,4R)-4-(3,4-difluorophenyl)-1-(2-methoxyethyl)pyrrolidin-3-yl)urea], the IC50 is below 100 nM. The compound `CCc1nn(-c2ccccc2)c(NC(=O)N[C@@H]2CN(CCOC)C[C@H]2c2ccc(F)c(F)c2)c1C` [Example 72, 1-((3S,4R)-4-(3,4-difluorophenyl)-1-(2-methoxyethyl)pyrrolidin-3-yl)-3-(3-ethyl-4-methyl-1-phenyl-1H-pyrazol-5-yl)urea] had an IC50 below 100 nM. `COCCN1C[C@@H](NC(=O)Nc2cc(-c3cnn(C)c3)nn2-c2ccccc2)[C@H](c2ccc(F)c(F)c2)C1` [Example 73, 1-((3S,4R)-4-(3,4-difluorophenyl)-1-(2-methoxyethyl)pyrrolidin-3-yl)-3-(1′-methyl-1-phenyl-1H,1′H-3,4′-bipyrazol-5-yl)urea] displayed an IC50 below 100 nM. `COCCN1C[C@@H](NC(=O)Nc2c(C)c(OCC3COC3)nn2-c2ccccc2)[C@H](c2ccc(F)c(F)c2)C1` [Example 74, 1-((3S,4R)-4-(3,4-difluorophenyl)-1-(2-methoxyethyl)pyrrolidin-3-yl)-3-(4-methyl-3-(oxetan-3-ylmethoxy)-1-phenyl-1H-pyrazol-5-yl)urea]: the half-maximal inhibitory concentration (IC50) is below 100 nM. With `COCCN1C[C@@H](NC(=O)Nc2c(C)c(OCC3(C)COC3)nn2-c2ccccc2)[C@H](c2ccc(F)c(F)c2)C1` [Example 75, 1-((3S,4R)-4-(3,4-difluorophenyl)-1-(2-methoxyethyl)pyrrolidin-3-yl)-3-(4-methyl-3-((3-methyloxetan-3-yl)methoxy)-1-phenyl-1H-pyrazol-5-yl)urea], the concentration for half-maximal inhibition (IC50) was below 100 nM. For the compound `COCCN1C[C@@H](NC(=O)Nc2c(C)c(OC[C@H]3COC(C)(C)O3)nn2-c2ccccc2)[C@H](c2ccc(F)c(F)c2)C1` [Example 76, 1-((3S,4R)-4-(3,4-difluorophenyl)-1-(2-methoxyethyl)pyrrolidin-3-yl)-3-(3-(((S)-2,2-dimethyl-1,3-dioxolan-4-yl)methoxy)-4-methyl-1-phenyl-1H-pyrazol-5-yl)urea], the IC50 was below 100 nM. As for `COCCN1C[C@@H](NC(=O)Nc2c(C)c(OC[C@@H]3COC(C)(C)O3)nn2-c2ccccc2)[C@H](c2ccc(F)c(F)c2)C1` [Example 77, 1-((3S,4R)-4-(3,4-difluorophenyl)-1-(2-methoxyethyl)pyrrolidin-3-yl)-3-(3-(((R)-2,2-dimethyl-1,3-dioxolan-4-yl)methoxy)-4-methyl-1-phenyl-1H-pyrazol-5-yl)urea], the concentration for half-maximal inhibition (IC50) is below 100 nM. In turn, `COCCN1C[C@@H](NC(=O)Nc2c3c(nn2-c2ccccc2)CN(C(=O)OC(C)(C)C)C3)[C@H](c2ccccc2)C1` [Example 79, tert-butyl 3-(3-((3S,4R)-1-(2-methoxyethyl)-4-phenylpyrrolidin-3-yl)ureido)-2-phenyl-4,6-dihydropyrrolo[3,4-c] pyrazole-5(2H)-carboxylate] displayed a half-inhibitory concentration (IC50) of 1000 to 10000 nM.

In turn, `COCCN1C[C@@H](NC(=O)Nc2c(C)c(C(C)C)nn2-c2ccccc2)[C@H](c2ccccc2)C1` [Example 80, 1-(3-isopropyl-4-methyl-1-phenyl-1H-pyrazol-5-yl)-3-((3S,4R)-1-(2-methoxy-ethyl)-4-phenylpyrrolidin-3-yl)urea] had an IC50 below 100 nM. In the case of `COCCN1C[C@@H](NC(=O)Nc2c3c(nn2-c2ccccc2)COC3)[C@H](c2ccccc2)C1` [Example 81, 1-((3S,4R)-1-(2-methoxy-ethyl)-4-phenylpyrrolidin-3-yl)-3-(2-phenyl-4,6-dihydro-2H-furo[3,4-c]pyrazol-3-yl)urea], the concentration for half-maximal inhibition (IC50) was below 100 nM. Take `COCCN1C[C@@H](NC(=O)Nc2c3c(nn2-c2ccccc2)CSC3)[C@H](c2ccccc2)C1` [Example 82, 1-((3S,4R)-1-(2-methoxy-ethyl)-4-phenylpyrrolidin-3-yl)-3-(2-phenyl-4,6-dihydro-2H-thieno[3,4-c]pyrazol-3-yl)urea]: the IC50 is below 100 nM. Turning to `COCCN1C[C@@H](NC(=O)Nc2c(C)c(C)nn2-c2ccccc2)[C@H](c2cc(F)cc(F)c2)C1` [Example 83, 1-((3S,4R)-4-(3,5-difluoro-phenyl)-1-(2-methoxyethyl)pyrrolidin-3-yl)-3-(3,4-dimethyl-1-phenyl-1H-pyrazol-5-yl)urea], the IC50 was below 100 nM. With `COCCN1C[C@@H](NC(=O)Nc2c3c(nn2-c2ccccc2)CCC3)[C@H](c2cc(F)cc(F)c2)C1` [Example 84, 1-((3S,4R)-4-(3,5-difluoro-phenyl)-1-(2-methoxyethyl)pyrrolidin-3-yl)-3-(2-phenyl-2,4,5,6-tetrahydro-cyclopenta[c]pyrazol-3-yl)urea], the 50% inhibitory concentration (IC50) was below 100 nM.

Compound `COCCN1C[C@@H](NC(=O)Nc2cc(C(C)C)nn2-c2ccccc2)[C@H](c2cc(F)cc(F)c2)C1` [Example 85, 1-((3S,4R)-4-(3,5-difluoro-phenyl)-1-(2-methoxyethyl)pyrrolidin-3-yl)-3-(3-isopropyl-1-phenyl-1H-pyrazol-5-yl)urea] gave an IC50 below 100 nM. The compound `COCCN1C[C@@H](NC(=O)Nc2cc(C)nn2-c2ccccc2)[C@H](c2cc(F)cc(F)c2)C1` [Example 86, 1-((3S,4R)-4-(3,5-difluoro-phenyl)-1-(2-methoxyethyl)pyrrolidin-3-yl)-3-(3-methyl-1-phenyl-1H-pyrazol-5-yl)urea] displayed an IC50 below 100 nM. `COCCN1C[C@@H](NC(=O)Nc2c3c(nn2-c2ccccc2)COC3)[C@H](c2cc(F)cc(F)c2)C1` [Example 88, 1-((3S,4R)-4-(3,5-difluoro-phenyl)-1-(2-methoxyethyl)pyrrolidin-3-yl)-3-(2-phenyl-4,6-dihydro-2H-furo[3,4-c]pyrazol-3-yl) urea] had an IC50 below 100 nM.
